The text below walks through data of patent EP0562849A2, “Steroid derivatives” (priority 1992, dated 1993).

“And” between values parts separate entries of the source, which are not always exact repeats. Equal values may be shown once. Read-outs that look alike come from different tables or passages of the source.

This experiment relates to human LDL receptor promoter. Briefly: in vitro Luciferase Activity Test (LDL receptor promoter-luciferase reporter in recombinant CHO cells). The arrangement: MED: unit not given here. The format is cell-based. The note with it: for Emax: Homo sapiens, CHO, read-out: MA%; for Emax / MA%: maximum activity (%) over control; for MED: minimum effective dose (molar concentration, unit not given), 24 hr, assay medium with 0.5 µg/ml 25-hydroxycholesterol; for RED: relative effective dose compared to compound of Example 4, below one = more active. The method, then: A 1546 base pair sequence of the human LDL receptor promoter was amplified using the polymerase chain reaction. A reaction mixture containing 20 pMoles each of the synthetic oligonucleotides 5'-[…]-3' (Seq. I.D. No: 1) and 5'-AAG-[…]-3', (Seq. I.D. No:2) 1 µg human genomic DNA purified from the adenocarcinoma cell line P3UCLA, 200 µM each of dATP, dGTP, dCTP, and TTP, 2.5 units of Taq DNA polymerase, 10mM Tris-HCI pH 8.3, 50 mM KCI, […], 0.1% gelatin in a final volume of 100 µl was subjected to 30 cycles of 15 sec at 96°C, 30 sec at 55°C, and 1 min at 72°C. The material was subject to gel electrophoresis on a 1% agarose gel and the 1546 base pair band was isolated and restriction enzyme digested with Hind III and Nde I. This fragment was ligated into the plasmid pSP72 (ProMega Biotech), which had previously been restriction enzyme nuclease digested with Hind III and Nde I. The resulting vector, pNLDLRP, was restriction endonulease digested with Ndel and Hind III and the material was again run on a 1% agarose gel to reisolate the 1546 bp LDL receptor sequence.
Plasmid vector PSv2 was constructed by digesting plasmid pSv2-globin with Hind III and Bgl II then ligating an Nrul-Xhol linker into the vector. Plasmid pSv2 globin is disclosed in U.S. Patent No. 4,775,624, the entire teaching of which is herein incorporated by reference. The linker contained the following sequences: [formula] (Seq. I.D. No: 3), and [formula] ' (Seq. I.D. No:4).
The resulting vector was designated pSv2-H NXB because it contained a […], an Nrul site, an Xhol site and a Bgl site. The Hind III-Bgl II fragment of plasmid pAlc4(NRRL B-18783), which contains the firefly luciferase gene, was then ligated into the Hin III-Bgl site of plasmid pSv2-HNXB. A neomycin resistance-conforming gene was then ligated into the Bam HI site of the resultant plasmid to form plasmid pSv2.
A 1546 base pair fragment was isolated and cloned into a Ndel and Hind III (partial) restriction digested vector pSv2 containing the firefly luciferase reporter gene and a gene for neomycin resistance. The resulting vector, pLDL-Luc1 Neo-10, contains the human LDL receptor promoter driving expression of the firefly luciferase gene, a gene coding for neomycin resistance, ampicillin resistant marker and an origin of replication.
Plasmid pLDL-Luc 1 Neo-10 was used to stably transfect Chinese Hamster Ovary cells using a Lipofection Reagent kit and procedure from Gibco BRL Research Products Division Life Technologies Inc. Transformants were selected by picking individual colonies grown in Dulbecco's modified Eagle's medium supplimented with 10% fetal bovine serum and containing 500 µg per ml […]. […] Clone S27/B30 was used for subsequent screening.
In developing a cell based screen it is important to have a negative control. The viral SV40 promoter is ideal for this purpose in that it has a number of SP1 elements that enhance gene transcription. These elements are not under the control of end product repression; but they do have a high degree of sequence homology with the 16 base pair long sterol response element found in the LDL receptor promoter. The SV40 promoter should therefore be a sensitive mechanism to screen out agents that induce nonspecific transcription.
Chinese Hamster Ovary cells were stably cotransfected with a vector pSV2AL-A 5' containing the SV40 promoter driving expression of the firefly luciferase gene and a second vector pSV2 NeoBam containing a neomycin resistant marker. Transfections were carried out using the Lipofectin Reagent kit and procedure from Gibco BRL Research Products Division Life Technologies Inc. Transformants were selected by picking individual colonies grown in Dulbecco's modified Eagle's medium supplemented with 10% fetal bovine serum and containing 500 µg per ml of geneticin. Individual clones were selected, lysed and assayed for luciferase production. […]
(Reporter assays use an easily measured gene product as a stand-in for the process of interest.)

Setting [1] is: NA is not active, 30% luciferase activity cutoff point (footnote 1).
Setting [2] is: tests using 30% luciferase activity cutoff point (footnote 1).
Where [3] appears, read: 30% luciferase activity cutoff point (footnote 1).
Setting [4] is: 15% luciferase activity cutoff point (footnote 2).
The mark [5] stands for this setting: tests using 15% luciferase activity cutoff point (footnote 2).

On to `C/C=C/C[C@@H]1C(=O)CC[C@]2(C)[C@H]3CC[C@]4(C)[C@@H]([C@H](C)CCCC(C)(C)O)CC[C@H]4[C@@H]3CC[C@@H]12` [Example 3, [4a(E),5a]-4-(2-butenyl)-25-hydroxycholestan-3-one], for which the Emax under setting [1] was 144%. Under setting [2], the MED was 2.2. In addition, the RED under setting [3] amounted to 0.97.
`CCCC[C@@H]1[C@H](O)CC[C@@]2(C)[C@H]1CC[C@@H]1[C@@H]2CC[C@]2(C)[C@@H]([C@H](C)CCCC(C)C)CC[C@@H]12` [Example 7, [4a,5a]-4-butylcholestan-3a-ol]: under setting [4], the Emax worked out at 46% and the MA% was 30%.
Consider `C/C=C/C[C@@H]1[C@H](N)CC[C@@]2(C)[C@H]1CC[C@@H]1[C@@H]2CC[C@]2(C)[C@@H]([C@H](C)CCCC(C)C)CC[C@@H]12` [Example 8, [4a(E), 5a]-4-(2-butenyl)-3a-aminocholestone], for which the Emax under setting [1] was determined as 51%. Besides, under setting [2], the MED is reported as 5.6. Besides, the RED under setting [3] worked out at 2.50.
Consider `C/C=C/C[C@@H]1[C@H](NC(C)=O)CC[C@@]2(C)[C@H]1CC[C@@H]1[C@@H]2CC[C@]2(C)[C@@H]([C@H](C)CCCC(C)C)CC[C@@H]12` [Example 9, [4a(E),5a]-4-(2-butenyl)-3a acetamidocholestane], for which the Emax under setting [1] was 60%. In addition, the MED under setting [2] is reported as 2.0. In addition, the RED under setting [3] was 0.88.
With `C/C=C/C[C@@H]1[C@@H](NC(C)=O)CC[C@@]2(C)[C@H]1CC[C@@H]1[C@@H]2CC[C@]2(C)[C@@H]([C@H](C)CCCC(C)C)CC[C@@H]12` [Example 10, [4a(E),5a]-4-(2-butenyl)-3b acetamidocholestane], under setting [1], the Emax turned out to be 55%. For the same compound, under setting [2], the MED is recorded as 10.3. For the same compound, under setting [3], the RED is 4.5.
As to `CC(C)CCC[C@@H](C)[C@H]1CC[C@H]2[C@@H]3CCC4[C@H](Cc5ccccc5)[C@H](O)CC[C@]4(C)[C@H]3CC[C@]12C` (some centres unmarked) [Example 22, 4a-benzylcholestan-3a-ol], the Emax under setting [1] worked out at 18%.
`CC(C)CCC[C@@H](C)[C@H]1CC[C@H]2[C@@H]3CCC4[C@H](Cc5ccc(C(F)(F)F)cc5)[C@H](O)CC[C@]4(C)[C@H]3CC[C@]12C` (some centres unmarked) [Example 26, 4a-(4-trifluoromethylbenzyl)cholestan-3a-ol]: the MA% under setting [4] was 59% and 34%. Under setting [5], the MED was 9.1.
As to `CC(C)CCC[C@@H](C)[C@H]1CC[C@H]2[C@@H]3CCC4[C@H](Cc5ccc(Cl)c(Cl)c5)[C@H](O)CC[C@]4(C)[C@H]3CC[C@]12C` (some centres unmarked) [Example 27, 4a-(3,4-dichlorobenzyl)cholestan-3a-ol], under setting [4], the Emax came to 32% and the RED turned out to be 4.0. In addition, under setting [5], the MED was 9.1.
For `COC(=O)c1ccc(C[C@H]2C3CC[C@H]4[C@@H]5CC[C@H]([C@H](C)CCCC(C)C)[C@@]5(C)CC[C@@H]4[C@@]3(C)CC[C@H]2O)cc1` (some centres unmarked) [Example 29, 4a-(4-methoxycarbonylbenzyl)cholestan-3a-ol], under setting [4], the Emax came out at 37% and the RED was determined as 2.5. The MED under setting [5] amounted to 14.
As to `CC(C)CCC[C@@H](C)[C@H]1CC[C@H]2[C@@H]3CCC4[C@H](Cc5ccc(Cl)cc5)[C@H](O)CC[C@]4(C)[C@H]3CC[C@]12C` (some centres unmarked) [Example 31, 4a-(4-chlorobenzyl)cholestan-3a-ol], under setting [4], the Emax was 46% and the RED was 4.3. Also, under setting [5], the MED was determined as 9.7.
On to `CC(C)CCC[C@@H](C)[C@H]1CC[C@H]2[C@@H]3CCC4[C@H](Cc5ccc(OCc6ccccc6)cc5)[C@H](O)CC[C@]4(C)[C@H]3CC[C@]12C` (some centres unmarked) [Example 32, 4a-(4-benzyloxybenzyl)cholestan-3a-ol], for which, under setting [4], the Emax came to 36% and the RED amounted to 3.8. The MED under setting [5] stood at 8.6.
The matching figures for `CC(C)CCC[C@@H](C)[C@H]1CC[C@H]2[C@@H]3CCC4[C@H](Cc5ccc(CO)cc5)[C@H](O)CC[C@]4(C)[C@H]3CC[C@]12C` (some centres unmarked) [Example 33, 4a-(4-hydroxymethylbenzyl)cholestan-3a-ol]: 28%, 4.3 and 9.8.
In the case of `CC(C)CCC[C@@H](C)[C@H]1CC[C@H]2[C@@H]3CCC4[C@H](Cc5ccc(C(=O)O)cc5)[C@H](O)CC[C@]4(C)[C@H]3CC[C@]12C` (some centres unmarked) [Example 34, 4a-(4-carboxybenzyl)cholestan-3a-ol], under setting [4], the Emax amounted to 38% and the RED is given as 2.1. Also, the MED under setting [5] worked out at 4.8.
For the compound `CC(C)CCC[C@@H](C)[C@H]1CC[C@H]2[C@@H]3CCC4=C(Cc5ccccc5)[C@H](O)CC[C@]4(C)[C@H]3CC[C@]12C` [Example 38, 4-benzyl-4-cholesten-3a-ol], under setting [4], the MA% was 33% and 58%; the RED is 7.37 and 3.7. In addition, under setting [5], the MED was 84 and 42.
As for `C=CC[C@H]1C2=CC[C@H]3[C@@H]4CC[C@H]([C@H](C)CCCC(C)C)[C@@]4(C)CC[C@@H]3[C@@]2(C)CC[C@H]1O` [Example 40, 4a-(2-propenyl)-5-cholesten-3a-ol], under setting [4], the Emax turned out to be 99% and the RED came out at 1.0. Besides, the MA% under setting [1] was 110% and 71%. For the same compound, the MED under setting [5] worked out at 2.3. For the same compound, the RED under setting [3] is 0.51 and 0.52.
For the compound `C=CC[C@@H]1[C@H](O)CC[C@@]2(C)[C@H]1CC[C@@H]1[C@@H]2CC[C@]2(C)[C@@H]([C@H](C)CCCN(C)C)CC[C@@H]12` [Example 44, 4a-(2-propenyl)-cholan-24-N,N-dimethylamino-3a-ol], under setting [4], the Emax came to 62% and the MA% amounted to 78%. For the same compound, the MA% under setting [1] is 77% and 56%.
As to `C[C@H](CCCN(C)C)[C@H]1CC[C@H]2[C@@H]3CC[C@@H]4C[C@H](O)CC[C@]4(C)[C@H]3C[C@H](O)[C@]12C` [Example 50, 3a, 12a-dihydroxy-25-azacoprostane], under setting [1], the Emax was 81% and the MA% came out at 92%. Under setting [2], the MED was determined as 6.2.
Turning to `C[C@H](CCCN(C)C)[C@H]1CC[C@H]2[C@@H]3CC[C@@H]4C[C@H](O)CC[C@]4(C)[C@H]3CC[C@]12C` [Example 51, 3a-hydroxy-25-azacoprostane], the Emax under setting [4] is 173% and the Emax under setting [1] was 112%. Also, the MED is, setting by setting: under setting [5], 1.28; under setting [2], 6.4. The RED was 1.16 under setting [4] and 1.13 under setting [3].
Take `C[C@H](CCCN(C)C)[C@H]1CC[C@H]2[C@@H]3[C@H](O)C[C@@H]4C[C@H](O)CC[C@]4(C)[C@H]3CC[C@]12C` [Example 52, 3a,7a-dihydroxy-25-azacoprostane]: under setting [1], the MA% was 121% and 85% and 136% and 86% and 84%.
Turning to `C[C@H](CCCN(C)C)[C@H]1CC[C@H]2[C@@H]3[C@H](O)C[C@@H]4C[C@H](O)CC[C@]4(C)[C@H]3C[C@H](O)[C@]12C` [Example 53, 3a,7a,12a-trihydroxy-25-azacoprostane], the MA% under setting [1] was 57% and 99%.
Consider `C[C@H](CCCN(C)C)[C@H]1CC[C@H]2[C@@H]3[C@H](O)C[C@@H]4C[C@H](O)CC[C@]4(C)[C@H]3CC[C@]12C` [Example 54, 3a,7a-dihydroxy-25-azacoprostane], for which, under setting [1], the MA% is 102% and 92%. The MED under setting [2] was found to be 12.3.
